Test results from US20110059226A1, “METHOD FOR LOADING A MOLECULE INTO A POROUS SUBSTRATE” (priority 2009, published 2011).

Columns and labels:
Type in all cases: physicochemical
[1] = Solubility limit of Ibuprofen in CO2 (I) and CO2 (I) with 5 mol % cosolvent, by visual inspection; details: room temperature, 55±2 bar, 9 hours
Experimental: The solubility of Ibuprofen in CO2 (I) and CO2 (I) with 5 mol % of cosolvent was determined by visual inspection of sample mixtures of the solvent(s) and Ibuprofen at room temperature and 55±2 bar, and the solubility limit was considered to be reached when particles of Ibuprofen were visible.

[2] = Loading of Ibuprofen into mesoporous silica (MCM-41) from liquid carbon dioxide, adsorbed amount measured by TGA; details: for Maximum loaded amount of Ibuprofen in mesoporous silica: pure CO2 (I), 20° C., 55±2 bar
Text: The mesoporous particles were placed in a bag (fabric of polypropene, PP 3333, permeability 105 DIN, Derma AB, Sweden), which was permeable for the solvent and dissolved Ibuprofen molecules but kept the mesoporous particles in one place in the reactor (see below). The amount of mesoporous particles was 0.1 g in all experiments, while the amount of Ibuprofen was varied for different loading experiments. The particles in the bag and Ibuprofen crystals (thoroughly ground in a mortar before use) were placed in a glass beaker (400 ml), which was placed in an in-house built stainless steel reactor (1.7 L) with two sapphire glass windows. The reactor was first pressurized with carbon dioxide and thereafter 200 ml CO2 (I) or CO2 (I)+5 mol-% cosolvent was introduced into the glass beaker at 20° C. and 55±2 bar. […] After the loading period (15 minutes to 18 hours), the reactor was depressurized and the bag containing the mesoporous particles with Ibuprofen was retrieved. The samples were characterized with TGA using a TGA 7 instrument (Perkin Elmer Inc., USA). The temperature program used consisted of an initial part with a heating rate of 20° C./min from 20° C. to 95° C., followed by an isothermal pause for 60 minutes at 95° C., and finally heating from 95° C. up to 800° C. at a heating rate of 2° C./min. All TGA measurements were performed under 20 ml/min flow of N2 gas. […] The loading time and concentration of Ibuprofen in the CO2 (I) was varied in the experiments and each experiment is represented by one point in the graph in FIG. 1.

[3] = Release of Ibuprofen from mesoporous silica into water; details: within one minute of the mesoporous silica being added to water
Text: Fifty percent of the Ibuprofen is released into water within one minute of the mesoporous silica being added to water. This is desirable as a quicker release for an analgesic drug will result in faster relief for the individual taking the analgesic drug.

- Solubility limit ([1]; Solvent CO2 (I) + acetone (5 mol %)): 1.5-2.0 wt-%
- Solubility limit ([1]; Solvent CO2 (I) + cyclohexane (5 mol %)): 1.0-1.5 wt-%
- Solubility limit ([1]; Solvent CO2 (I) + methanol (5 mol %)): >2.0 wt-%
- Solubility limit ([1]; Solvent CO2 (I)): 0.20-0.25 wt-%
- Maximum adsorbed amount of Ibuprofen in the mesoporous particles ([2]; 0.34 wt-% Ibuprofen in CO2 (I) + acetone (5 mol-%)): approximately 50 mg Ibuprofen/g SiO2
- Maximum adsorbed amount of Ibuprofen in the mesoporous particles ([2]; 0.34 wt-% Ibuprofen in CO2 (I) + cyclohexane (5 mol-%)): approximately 200 mg Ibuprofen/g SiO2
- Maximum adsorbed amount of Ibuprofen in the mesoporous particles ([2]; 0.34 wt-% Ibuprofen in CO2 (I) + methanol (5 mol-%)): approximately 50 mg Ibuprofen/g SiO2
- Maximum loaded amount of Ibuprofen in mesoporous silica ([2]; Ibuprofen concentration below the solubility limit (0.04 wt-%)): much lower loading
- Maximum loaded amount of Ibuprofen in mesoporous silica ([2]; solution saturated with Ibuprofen (0.34 or 0.90 wt-% nominal), 7 to 12 hours): ~300 mg Ibuprofen/g SiO2
- Ibuprofen released into water from mesoporous silica [3]: Fifty
SMILES: CC(C)Cc1ccc(C(C)C(=O)O)cc1 (stereo not shown) [Ibuprofen]
